# Reference: patent publication US12059429B2, “Hornerin: a novel non-VEGF mediated angiogenic protein expressed in both human and mouse angiogenic endothelial cells and human pancreatic cancer cells” (University of Virginia Patent Foundation, priority 2018, dated 2024)
# How the values were obtained:
# hornerin [1] = test: Immunoblot of hornerin in human keratinocytes treated with EGF; format: cell-based; details: 48 hours
# hornerin [2] = test: Immunoblot of hornerin in HUVECs treated with growth factors; format: cell-based, human; details: 24 hours treatment; growth factors at published B-max concentrations, EGF at increasing concentrations
# Protocol: HUVECs were cultured in 10 cm dishes for 24 hours prior to a change to media containing VEGF (at B-max concentration), TCM, or VC. After 24 hours treatment, the cells were washed with DPBST two times and lysed with radioimmunoprecipitation assay (RIPA) buffer (Thermo Scientific). Lysate protein concentrations were measured by the bicinchoninic acid assay (Pierce, Waltham, MA, USA) and equivalent amounts of protein were loaded into precast 4-15% tris-glycine eXtended (TGX) polyacrylamide gels (Bio-Rad, Hercules, CA, USA). The proteins were resolved by electrophoresis and transferred to nitrocellulose membranes using the iBlot system (Invitrogen, Carlsbad, CA, USA). The membranes were then washed in Tris-buffered saline+1% Tween-20 (TBST), blocked for 30 minutes in TBST+2% milk solution, and incubated overnight at 4° C. with primary antibodies anti-hornerin (Abcam, Cambridge, UK, ab78909; (1:1000)) and anti-HSP90 (Cell Signaling Technology, Danvers, MA, USA, 4877; (1:1000)). The following day the membranes were washed and subsequently incubated with the secondary antibodies anti-goat HRP (R&D Systems, Minneapolis, MN, USA, HAF109; 1:5000) and anti-rabbit HRP (GE Healthcare, NA934V; 1:5000) for 45 minutes at RT. […]
# Major constituents of TCM were determined using a Human Angiogenesis Antibody Array (Affymetrix, Santa Clara, CA, USA) per manufacturer's instructions. […]
# hornerin [3] = test: Immunoblot of hornerin in L3.6pl cells treated with EGF; format: cell-based, human; details: EGF 1, 10 or 100 ng/mL, 48 hours
# hornerin [4] = molecular target: T1, hornerin (Homo sapiens, UniProt Q86YZ3); test: Phage display-based functional proteomics (pulldown, MS/MS, anti-hornerin immunoblot); format: binding; details: tandem mass spectroscopy of pulldown lysates, confirmed by immunoblot
# T1 construct: A unique band in the PTEM 9 lane that was not present in the control sample corresponded to the predicted molecular weight of hornerin; endogenous in cells
# Protocol: The gel piece was transferred to a siliconized tube and washed and destained in 200 μL 50% methanol overnight. The gel pieces were dehydrated in acetonitrile, rehydrated in 30 μL of 10 mM dithiolthreitol in 0.1M ammonium bicarbonate, and reduced at room temperature for 0.5 hours. The DTT solution was removed and the sample alkylated in 30 μL 50 mM iodoacetamide in 0.1M ammonium bicarbonate at room temperature for 0.5 hours. The reagent was removed and the gel pieces dehydrated in 100 μL acetonitrile. The acetonitrile was removed and the gel pieces rehydrated in 100 μL 0.1M ammonium bicarbonate. The pieces were dehydrated in 100 μL acetonitrile, the acetonitrile removed and the pieces completely dried by vacuum centrifugation. […]
# The LC-MS system consisted of a Thermo Electron Velos Orbitrap ETD mass spectrometer system with a Protana nanospray ion source interfaced to a self-packed 8 cm×75 μm id Phenomenex Jupiter 10 μm C18 reversed-phase capillary column. […] The digest was analyzed using the double play capability of the instrument acquiring full scan mass spectra (Orbitrap, 60 K resolution) to determine peptide molecular weights followed by product ion spectra (ion trap) to determine amino-acid sequence in sequential scans. […]
# The data were analyzed by database searching using the Sequest search algorithm within Proteome Discoverer (v1.2) against IPI Human (v3.78, 86,702 entries). […]
# TCM-treated HUVECs = test: Phage-based ELISA on treated HUVECs with two-way ANOVA; format: binding, human
# Protocol: HUVEC were plated in MaxiSorp 96-well plates (NUNC, Rochester, NY, USA) and cultured for 24 hours, at which time the cells were treated with media containing VEGF (VEGFCM) at B-max concentration (Igarashi et al., 2003) or TCM for an additional 24 h. ELISA was initiated by adding 1010 isolated phage to each well for a 1 hour incubation. After three washes with DPBS+0.1% Tween-20 (DPBST), the cells were incubated with horse radish peroxidase (HRP)-tagged anti-M13 antibody (GE Healthcare, Little Chalfont, UK, 27-9421-01; (1:3000)) for 30 min. The plates were washed three additional times (DBPST) then developed with 200 μL 3,3′,5,5′-Tetramethylbenzidine (Sigma) for 10 minutes. The A650 was measured on a microplate reader (Molecular Devices, Sunnyvale, CA, USA).
# Absorbance values were corrected by comparison to unmodified control KE phage. […]
# As VEGF is highly abundant in the pancreatic tumor milieu, clones were further segregated based on their ability to bind to VEGF-treated HUVECs vs. tumor conditioned media (TCM)-treated HUVECs. […] Enzyme-linked immunoabsorbent assay (ELISA) results were analyzed by two-way analysis of variance (ANOVA) to find clones that consistently bound to HUVECs treated with TCM, but not vehicle control (VC) or VEGF-supplemented control media (VEGFCM; FIGS. 2A and 2B). […]
# T1 sequence (Q86YZ3 whole entry): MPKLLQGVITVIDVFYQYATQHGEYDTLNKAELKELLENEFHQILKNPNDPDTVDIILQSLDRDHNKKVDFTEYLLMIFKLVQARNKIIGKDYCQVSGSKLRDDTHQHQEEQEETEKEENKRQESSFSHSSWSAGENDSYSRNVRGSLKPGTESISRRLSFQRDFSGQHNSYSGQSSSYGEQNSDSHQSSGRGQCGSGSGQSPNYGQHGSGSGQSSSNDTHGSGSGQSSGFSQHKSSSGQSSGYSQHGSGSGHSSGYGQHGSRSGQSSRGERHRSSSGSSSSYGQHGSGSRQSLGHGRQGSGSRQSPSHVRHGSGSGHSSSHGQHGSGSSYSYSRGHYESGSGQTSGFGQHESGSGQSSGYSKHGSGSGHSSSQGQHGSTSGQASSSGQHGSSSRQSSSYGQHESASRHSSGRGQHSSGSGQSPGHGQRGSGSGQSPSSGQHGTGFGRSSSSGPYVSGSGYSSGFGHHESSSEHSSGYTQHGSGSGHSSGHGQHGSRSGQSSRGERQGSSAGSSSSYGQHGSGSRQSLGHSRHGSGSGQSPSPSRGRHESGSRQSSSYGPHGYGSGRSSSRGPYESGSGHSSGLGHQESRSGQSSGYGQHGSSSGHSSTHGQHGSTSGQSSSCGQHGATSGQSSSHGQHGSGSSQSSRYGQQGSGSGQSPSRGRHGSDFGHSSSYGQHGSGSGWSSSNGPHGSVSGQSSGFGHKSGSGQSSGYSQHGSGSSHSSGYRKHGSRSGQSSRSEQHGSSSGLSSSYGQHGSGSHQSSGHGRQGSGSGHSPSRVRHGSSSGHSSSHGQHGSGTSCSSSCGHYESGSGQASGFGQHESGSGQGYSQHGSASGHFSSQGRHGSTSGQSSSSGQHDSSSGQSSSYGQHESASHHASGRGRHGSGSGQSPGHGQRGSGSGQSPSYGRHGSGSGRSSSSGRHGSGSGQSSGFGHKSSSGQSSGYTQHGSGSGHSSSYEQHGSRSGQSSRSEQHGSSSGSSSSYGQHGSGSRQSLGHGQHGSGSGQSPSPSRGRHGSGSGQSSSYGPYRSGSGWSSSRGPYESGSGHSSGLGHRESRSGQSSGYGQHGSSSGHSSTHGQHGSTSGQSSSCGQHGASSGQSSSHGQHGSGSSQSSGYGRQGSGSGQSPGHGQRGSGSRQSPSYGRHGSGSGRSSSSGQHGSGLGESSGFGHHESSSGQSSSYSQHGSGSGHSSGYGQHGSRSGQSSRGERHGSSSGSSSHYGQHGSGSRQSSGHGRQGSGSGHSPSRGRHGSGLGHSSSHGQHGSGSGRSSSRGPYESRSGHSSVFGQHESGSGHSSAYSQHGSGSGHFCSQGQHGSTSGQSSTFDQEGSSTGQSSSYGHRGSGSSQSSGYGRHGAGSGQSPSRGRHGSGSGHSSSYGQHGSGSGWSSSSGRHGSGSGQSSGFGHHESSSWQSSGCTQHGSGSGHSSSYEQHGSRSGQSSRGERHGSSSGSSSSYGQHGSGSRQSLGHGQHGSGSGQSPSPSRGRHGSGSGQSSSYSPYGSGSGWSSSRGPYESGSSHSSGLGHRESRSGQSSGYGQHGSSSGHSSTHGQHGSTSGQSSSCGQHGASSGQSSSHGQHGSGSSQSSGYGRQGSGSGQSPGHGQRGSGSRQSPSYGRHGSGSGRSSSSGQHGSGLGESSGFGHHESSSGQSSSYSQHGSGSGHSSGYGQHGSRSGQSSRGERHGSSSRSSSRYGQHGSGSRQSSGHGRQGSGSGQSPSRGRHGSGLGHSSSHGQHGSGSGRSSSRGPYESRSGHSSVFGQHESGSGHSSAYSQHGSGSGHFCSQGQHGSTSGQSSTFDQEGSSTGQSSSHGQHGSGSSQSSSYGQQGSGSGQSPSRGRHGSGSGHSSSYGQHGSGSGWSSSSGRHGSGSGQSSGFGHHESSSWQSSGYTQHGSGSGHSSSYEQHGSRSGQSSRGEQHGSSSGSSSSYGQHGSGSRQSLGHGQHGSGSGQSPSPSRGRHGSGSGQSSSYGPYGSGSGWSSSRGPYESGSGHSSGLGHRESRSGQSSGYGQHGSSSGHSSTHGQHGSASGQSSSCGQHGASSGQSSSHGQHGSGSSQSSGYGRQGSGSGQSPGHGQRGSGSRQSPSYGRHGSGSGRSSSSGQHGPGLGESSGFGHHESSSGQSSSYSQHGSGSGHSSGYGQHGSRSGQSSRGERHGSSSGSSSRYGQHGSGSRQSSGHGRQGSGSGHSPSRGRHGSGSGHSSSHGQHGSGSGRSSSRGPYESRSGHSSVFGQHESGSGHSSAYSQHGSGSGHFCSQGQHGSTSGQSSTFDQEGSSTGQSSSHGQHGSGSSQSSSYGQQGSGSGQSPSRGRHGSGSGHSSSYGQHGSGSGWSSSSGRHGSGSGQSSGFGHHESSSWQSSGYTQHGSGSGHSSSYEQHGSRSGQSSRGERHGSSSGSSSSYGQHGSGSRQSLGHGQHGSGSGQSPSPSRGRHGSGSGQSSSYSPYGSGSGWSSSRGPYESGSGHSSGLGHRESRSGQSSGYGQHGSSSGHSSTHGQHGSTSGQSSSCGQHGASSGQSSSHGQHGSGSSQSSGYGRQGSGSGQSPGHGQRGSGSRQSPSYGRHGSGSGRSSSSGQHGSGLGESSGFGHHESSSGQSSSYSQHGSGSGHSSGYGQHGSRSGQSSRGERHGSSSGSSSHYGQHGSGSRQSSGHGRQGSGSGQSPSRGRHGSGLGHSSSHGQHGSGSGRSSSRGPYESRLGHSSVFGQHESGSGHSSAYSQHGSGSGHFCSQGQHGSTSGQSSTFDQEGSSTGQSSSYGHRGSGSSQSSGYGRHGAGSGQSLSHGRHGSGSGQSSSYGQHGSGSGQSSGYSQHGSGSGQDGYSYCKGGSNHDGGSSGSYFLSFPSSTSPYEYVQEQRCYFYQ
substance,measurement,setting,value
EGF: recombinant human EGF (PeproTech),hornerin expression in keratinocytes,hornerin [1],more modest response
same,hornerin expression in HUVECs,hornerin [2],increased
same,hornerin expression in L3.6pl cells,hornerin [3],concentration-dependent increase in expression
SLLNRMP (listed as Homo sapiens) [PTEM 9],binding partner identified,hornerin [4],hornerin as the candidate protein
same,specificity (fold over vehicle control) among clones binding selectively to TCM-treated HUVECs,TCM-treated HUVECs,highest average specificity
